Measurements published in patent US11560373B2, “Compounds and their use as PDE4 activators” (Mironid Limited, priority 2018, dated 2023).

Assays:
[1] = target: T1, PDE4B1 (Homo sapiens, UniProt Q07343); experiment: PDE assay, [3H]cAMP hydrolysis by HEK-PDE4B1 cell lysate cytosol fraction; format: biochemical; conditions: mean % increase in counts over basal activity
T1 construct: stably expressed the full-length human PDE4D5, PDE4B1 and PDE4A4 long isoforms; made in house

[2] = test system: MDCK cells; experiment: Inhibition of in vitro cyst formation in 3D culture of MDCK cells; format: cell-based, canine; conditions: 300 nM prostaglandin E2, 10 days; % Cyst Volume compared to vehicle
Source text: In this study, the well-established three-dimensional (3D) MDCK cell model is used to investigate the effects of PDE4 long form activators on the formation of kidney cysts and evaluate their potential in the treatment of polycystic kidney diseases. 3D cysts are generated based on the method of Mao et al. (Mao, Z., Streets, A. J., Ong, A. C. M. Am. J. Physiol. Renal Physiol. 300(6): F1375-F1384, 2011), with some modifications.
Type 1 collagen (Invitrogen) is first prepared on ice by neutralising an acidic stock solution (3 mg/ml) with 17 mM NaOH and diluting it to 1 mg/ml with DMEM, supplemented with 2% (v/v) FBS, 2 mM L-glutamine, 1,000 U penicillin and 1,000 μg streptomycin (DMEM-2% FBS). […]
Phase-contrast images are obtained on the Motic microscope (×4 magnification). 8 images are taken per condition and the cyst diameter measured (up to 150 cyst measurements per well). Cyst spheroid volume is calculated using the formula 4/3πr^3 where r is the radius of the spheroid. A mean cyst volume is then calculated per well. The mean cyst volume and standard deviation between the duplicate wells is then calculated and expressed as a % Cyst Volume compared to the vehicle only (DMSO+300 nM PGE2) control wells. […]

[3] = target: T2, PDE4B2 (Homo sapiens, UniProt Q07343); experiment: PDE assay, [3H]cAMP hydrolysis by HEK-PDE4B2 cell lysate cytosol fraction (short form); format: biochemical; conditions: mean % increase in counts over basal activity
T2 construct: the full length human PDE4B2 short isoform; made in house
T2 sequence (Q07343 1-564 isoform Q07343-2): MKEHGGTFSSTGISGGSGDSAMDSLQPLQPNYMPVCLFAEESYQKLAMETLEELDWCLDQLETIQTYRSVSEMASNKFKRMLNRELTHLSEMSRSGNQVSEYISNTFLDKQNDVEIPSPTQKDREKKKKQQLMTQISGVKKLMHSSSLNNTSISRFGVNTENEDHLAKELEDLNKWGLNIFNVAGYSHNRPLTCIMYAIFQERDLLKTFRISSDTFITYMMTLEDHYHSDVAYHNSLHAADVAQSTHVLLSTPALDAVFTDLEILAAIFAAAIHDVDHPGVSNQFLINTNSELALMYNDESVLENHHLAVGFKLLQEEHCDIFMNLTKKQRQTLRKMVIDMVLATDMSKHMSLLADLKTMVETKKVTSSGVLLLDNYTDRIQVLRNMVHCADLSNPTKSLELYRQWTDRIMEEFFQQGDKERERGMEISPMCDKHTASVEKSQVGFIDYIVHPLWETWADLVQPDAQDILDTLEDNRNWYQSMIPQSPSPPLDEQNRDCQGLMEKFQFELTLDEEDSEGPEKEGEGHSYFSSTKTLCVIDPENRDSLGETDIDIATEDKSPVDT
Experimental: (§1) HEK 293 cells were transfected with pDEST™ PDE4 expression vectors using Lipofectamine LTX/Plus reagent (Invitrogen) as outlined by the manufacturer and clonal isolates expanded to obtain cell lines that stably expressed the full-length human PDE4D5, PDE4B1 and PDE4A4 long isoforms and the full length human PDE4B2 short isoform. These were called the HEK-PDE4D5, HEK-PDE4B1, HEK-PDE4A4 and HEK-PDE4B2 cell lines, respectively.
(§2) HEK-PDE4D5 cells were seeded out in 100 mm plates and incubated at 37° C. in an atmosphere of 5% CO2, 95% air. Cell lysates were prepared using KHEM buffer [50 mM KCl, 10 mM EGTA, 50 mM HEPES (pH 7.2), 1.92 mM MgCl2].
(§3) To prepare the cell lysates, the 100 mm plates containing the cells were placed on ice and washed with ice-cold PBS (phosphate buffered saline, pH 7.4). KHEM buffer (500 μl) was added to the cells. Cells were then scraped off the plate and triturated using a needle (BD Microlance™ 0.8, 40 mm). The lysed cells were then centrifuged at 2000 rpm for 10 minutes to remove cell debris and the supernatant (cell lysate containing recombinant PDE4D5) was transferred to a fresh tube and kept on ice.
(§4) The cell lysate containing recombinant PDE4D5 was transferred into a centrifuge tube and placed into an ultracentrifuge (BECKMAN COULTER) and spun at high speed (100,000 g) for 30 minutes at 4° C. The cytosol fraction was then collected and its protein amount determined using a BCA protein assay.
(§5) PDE assays were performed in thin walled V-bottomed 96-well plates. The assays were performed at a final concentration of 10 mM Tris/5 mM MgCl2 plus PDE4D5 cell lysate cytosol fraction, containing over-expressed PDE4D5, with and without test compound. The lysate/compound mix were incubated together for 15 min at room temperature on an orbital shaker prior to addition of [^3H] cAMP (final concentration 1 μM [^3H] cAMP; Perkin Elmer) to a final volume of 50 μl per reaction. The reactions were then incubated for 10 minutes at 30° C., terminated by heating for 2 min at 95° C. and allowed to cool. Snake venom (12.5 μl of 1 mg/ml; Crotalus atrox, Sigma) was then added and the plates were agitated and incubated for a further 15 minutes at 30° C. Dowex ion exchange resin (Sigma, chloride form, 200-400 mesh; 200 μl; prepared as a 1:1 Dowex: water stock, thoroughly re-suspended and diluted 2:1 with ethanol) was then added to each well and the plates incubated for 15 min at room temperature on an orbital shaker ensuring sufficient agitation for resin suspension (550 RPM). The reaction mixture was then transferred to a 96 well filter plate (Millipore; […] pore size) and filtered into a receiving 96-well plate to remove the dowex suspension. 30 μL of the filtered solution was then transferred to the wells of an Opti-plate (Perkin Elmer) 96 well assay plate and 120 μl of Microscint 40 scintillation fluid was added. The plate was then placed on an orbital shaker for 10 min at high speed (900 RPM) to mix the sample with scintillation fluid prior to quantitation using a plate based scintillation counter (Top-Count).
(§6) The % increase in counts in the presence of test compound at a particular concentration indicates the % increase in enzyme activity at that concentration.

[4] = target: T3, PDE4D5 (Homo sapiens, UniProt Q08499); experiment: PDE assay, [3H]cAMP hydrolysis by HEK-PDE4D5 cell lysate cytosol fraction; format: biochemical; conditions: 30 μM; mean % increase in counts over basal activity
T3 construct: stably expressed the full-length human PDE4D5, PDE4B1 and PDE4A4 long isoforms; made in house
T3 sequence (Q08499 1-745 isoform Q08499-6): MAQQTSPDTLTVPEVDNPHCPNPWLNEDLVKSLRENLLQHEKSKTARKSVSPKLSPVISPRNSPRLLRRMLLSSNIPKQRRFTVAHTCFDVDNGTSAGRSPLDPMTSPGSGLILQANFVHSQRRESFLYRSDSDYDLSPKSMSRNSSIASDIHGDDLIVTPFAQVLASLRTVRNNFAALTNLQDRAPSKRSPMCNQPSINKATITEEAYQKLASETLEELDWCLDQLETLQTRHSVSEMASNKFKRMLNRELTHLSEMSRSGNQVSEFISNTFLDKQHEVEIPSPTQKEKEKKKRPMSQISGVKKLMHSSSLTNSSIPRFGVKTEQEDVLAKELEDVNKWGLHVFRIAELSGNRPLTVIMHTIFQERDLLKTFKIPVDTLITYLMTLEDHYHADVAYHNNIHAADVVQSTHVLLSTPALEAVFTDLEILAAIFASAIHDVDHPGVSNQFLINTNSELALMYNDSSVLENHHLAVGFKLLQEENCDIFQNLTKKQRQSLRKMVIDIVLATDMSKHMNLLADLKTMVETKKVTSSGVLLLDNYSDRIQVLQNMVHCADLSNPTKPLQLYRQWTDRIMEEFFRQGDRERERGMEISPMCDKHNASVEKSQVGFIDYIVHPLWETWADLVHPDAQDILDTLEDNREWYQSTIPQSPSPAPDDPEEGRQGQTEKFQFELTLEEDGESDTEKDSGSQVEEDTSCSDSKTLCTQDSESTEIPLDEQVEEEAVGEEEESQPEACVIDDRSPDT
Experimental: as §1, §2, §3, §4, §5, §6

[5] = test system: MDCK cells; experiment: Reduction of intracellular cAMP levels in forskolin stimulated MDCK cells; format: cell-based, canine; conditions: compound 40 min prior to forskolin (1 μM) for 20 min
Experimental: MDCK cells were seeded at 100,000 cells per well, and left to adhere overnight. The cells were then treated with the test compound for 40 minutes, prior to stimulation with forskolin (1 μM, Sigma) for 20 minutes. Media was aspirated, and hydrochloric acid (0.1 M) was added to lyse the cells. The cAMP assay (Enzo Life Sciences) was performed according to the manufacturer's instructions.

[6] = target: T4, PDE4A4 (Homo sapiens, UniProt P27815); experiment: PDE assay, [3H]cAMP hydrolysis by HEK-PDE4A4 cell lysate cytosol fraction; format: biochemical; conditions: mean % increase in counts over basal activity
T4 construct: stably expressed the full-length human PDE4D5, PDE4B1 and PDE4A4 long isoforms; made in house
T4 sequence (P27815 whole entry, canonical isoform): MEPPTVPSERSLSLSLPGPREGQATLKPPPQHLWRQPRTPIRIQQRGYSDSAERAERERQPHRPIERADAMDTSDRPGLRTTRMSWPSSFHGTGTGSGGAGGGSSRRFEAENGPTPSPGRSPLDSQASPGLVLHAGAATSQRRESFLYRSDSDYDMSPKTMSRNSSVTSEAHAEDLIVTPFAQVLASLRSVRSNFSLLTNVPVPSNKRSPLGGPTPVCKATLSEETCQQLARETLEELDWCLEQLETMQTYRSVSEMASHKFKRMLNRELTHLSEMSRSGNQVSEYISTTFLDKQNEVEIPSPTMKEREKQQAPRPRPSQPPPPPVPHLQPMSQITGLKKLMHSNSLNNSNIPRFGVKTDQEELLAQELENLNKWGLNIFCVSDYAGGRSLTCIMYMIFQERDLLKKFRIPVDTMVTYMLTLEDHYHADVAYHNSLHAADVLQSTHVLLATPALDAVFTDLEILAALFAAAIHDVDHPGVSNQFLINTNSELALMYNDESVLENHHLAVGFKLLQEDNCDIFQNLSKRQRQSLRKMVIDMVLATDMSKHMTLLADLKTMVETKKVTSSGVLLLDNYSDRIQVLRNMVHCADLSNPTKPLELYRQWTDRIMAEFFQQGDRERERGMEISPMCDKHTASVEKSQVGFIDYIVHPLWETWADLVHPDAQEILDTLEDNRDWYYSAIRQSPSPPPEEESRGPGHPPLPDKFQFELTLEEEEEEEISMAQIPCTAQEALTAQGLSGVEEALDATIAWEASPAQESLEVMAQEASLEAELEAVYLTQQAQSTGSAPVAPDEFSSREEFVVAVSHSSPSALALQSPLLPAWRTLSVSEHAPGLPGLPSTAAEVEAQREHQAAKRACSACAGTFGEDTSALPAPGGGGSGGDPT

T1 sequence (Q07343 whole entry, canonical isoform): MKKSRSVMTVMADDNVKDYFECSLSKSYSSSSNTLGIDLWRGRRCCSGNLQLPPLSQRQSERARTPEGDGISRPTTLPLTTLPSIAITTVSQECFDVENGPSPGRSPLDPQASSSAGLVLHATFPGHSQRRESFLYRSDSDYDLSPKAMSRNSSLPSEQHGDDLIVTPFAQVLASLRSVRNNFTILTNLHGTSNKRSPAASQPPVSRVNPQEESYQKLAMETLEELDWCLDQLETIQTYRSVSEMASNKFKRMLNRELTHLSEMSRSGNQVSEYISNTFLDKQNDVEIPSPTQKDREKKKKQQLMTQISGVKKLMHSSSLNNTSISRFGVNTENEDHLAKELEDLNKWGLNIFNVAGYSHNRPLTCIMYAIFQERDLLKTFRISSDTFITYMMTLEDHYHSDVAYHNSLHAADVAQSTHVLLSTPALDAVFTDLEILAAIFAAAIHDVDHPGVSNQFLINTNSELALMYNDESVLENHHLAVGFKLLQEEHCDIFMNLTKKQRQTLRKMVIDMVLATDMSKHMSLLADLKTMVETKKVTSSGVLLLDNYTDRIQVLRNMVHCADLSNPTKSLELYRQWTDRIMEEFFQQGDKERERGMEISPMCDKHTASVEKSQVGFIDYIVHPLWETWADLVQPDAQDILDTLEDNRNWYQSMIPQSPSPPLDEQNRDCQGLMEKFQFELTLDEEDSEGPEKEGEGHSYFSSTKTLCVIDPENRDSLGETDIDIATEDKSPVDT

| % increase in PDE4B2 activity at 30 μM [3] [%] | activation at 30 µM [4] [%] | SMILES | other results |
| --- | --- | --- | --- |
|  |  | CCn1nc(-c2ccc(Cl)c(F)c2)nc1CC(=O)NCc1cccc(F)c1 [Example 1, 2-[3-(4-Chloro-3-fluorophenyl)-1-ethyl-1H-1,2,4-triazol-5-yl]-N-(3-fluorobenzyl) acetamide] | % increase in PDE4B1 activity at 30 μM [1]: 79.1% |
|  |  | CCn1nc(-c2ccc(Cl)c(F)c2)nc1CC(=O)NCc1cccc(OC)c1 [Example 2, 2-[3-(4-Chloro-3-fluorophenyl)-1-ethyl-1H-1,2,4-triazol-5-yl]-N-(3-methoxybenzyl) acetamide] | % increase in PDE4B1 activity at 30 μM [1]: 99.4% |
| −10.9 | 73.2 | CCn1nc(-c2ccc(Cl)c(F)c2)nc1CC(=O)NCc1cc(C)nc(C)c1 [Example 3, 2-[3-(4-Chloro-3-fluorophenyl)-1-ethyl-1H-1,2,4-triazol-5-yl]-N-((2,6-dimethylpyridin-4-yl)methyl)acetamide] | cyst formation in 3D culture of MDCK cells (FIG. 3) [2]: inhibition of cyst formation; intracellular cAMP levels in MDCK cells (FIG. 2) [5]: reduction in intracellular cAMP levels |
| −2.9 | 99.9 | COCCn1nc(-c2ccc(Cl)c(F)c2)nc1CC(=O)NCc1cc(Cl)cc(Cl)c1 [Example 22, 2-[3-(4-Chloro-3-fluorophenyl)-1-(2-methoxyethyl)-1H-1,2,4-triazol-5-yl]-N-[(3,5-dichlorophenyl)methyl]acetamide] | % increase in PDE4A4 activity at 30 μM [6]: 92.5% |
| 3.4 | 104 | CCn1nc(-c2ccc(Cl)c(OC)c2)nc1CC(=O)NCc1cc(Cl)cc(Cl)c1 [Example 29, 2-[3-(4-Chloro-3-methoxyphenyl)-1-ethyl-1H-1,2,4-triazol-5-yl]-N-[(3,5-dichlorophenyl)methyl]acetamide] |  |
| −9.4 | 82.3 | CCn1nc(-c2ccc(Cl)c(OCCOC)c2)nc1CC(=O)NCc1cc(Cl)cc(Cl)c1 [Example 33, 2-{3-[4-Chloro-3-(2-methoxyethoxy)phenyl]-1-ethyl-1H-1,2,4-triazol-5-yl}-N-[(3,5-dichlorophenyl)methyl]acetamide] |  |
| −4.4 | 108 | CCn1nc(-c2ccc(Cl)c(OC(C)C)c2)nc1CC(=O)NCc1cc(Cl)cc(Cl)c1 [Example 34, 2-[3-(4-Chloro-3-isopropyloxyphenyl)-1-ethyl-1H-1,2,4-triazol-5-yl]-N-[(3,5-dichlorophenyl)methyl]acetamide] | % increase in PDE4A4 activity at 30 μM [6]: 75.5% |
| 1.6 | 48.5 | CCn1nc(-c2ccc(Cl)c(OC(C)C)c2)nc1CC(=O)N[C@H]1CCOc2ccc(Cl)cc21 [Example 40, N-[(4S)-6-Chloro-3,4-dihydro-2H-1-benzopyran-4-yl]-2-[3-(4-chloro-3-isopropyloxyphenyl)-1-ethyl-1H-1,2,4-triazol-5-yl]acetamide] |  |
|  | 92 | O=C(Cc1nc(-c2ccc(Cl)c(F)c2)nn1CC1CC1)N[C@H]1CCc2ccccc21 [Example 72, 2-[3-(4-Chloro-3-fluorophenyl)-1-(cyclopropylmethyl)-1H-1,2,4-triazol-5-yl]-N-[(1S)-2,3-dihydro-1H-inden-1-yl]acetamide] |  |
|  | 55.3 | CCn1nc(-c2ccc(Cl)c(F)c2)nc1CC(=O)N[C@H]1CCOc2ccccc21 [Example 74, 2-[3-(4-Chloro-3-fluorophenyl)-1-ethyl-1H-1,2,4-triazol-5-yl]-N-[(4S)-3,4-dihydro-2H-1-benzopyran-4-yl]acetamide] |  |
|  | 79.1 | O=C(Cc1nc(-c2ccc(Cl)c(F)c2)nn1CC1CC1)N[C@H]1CCOc2ccc(Cl)cc21 [Example 78, N-[(4S)-6-Chloro-3,4-dihydro-2H-1-benzopyran-4-yl]-2-[3-(4-chloro-3-fluorophenyl)-1-(cyclopropylmethyl)-1H-1,2,4-triazol-5-yl]acetamide] |  |
|  | 58.9 | CCc1cc(CNC(=O)Cc2nc(-c3ccc(Cl)c(F)c3)nn2CC)cc(CC)n1 [Example 80, 2-[3-(4-Chloro-3-fluorophenyl)-1-ethyl-1H-1,2,4-triazol-5-yl]-N-[(2,6-diethylpyridin-4-yl)methyl]acetamide] |  |
|  | 34.3 | CCn1nc(-c2ccc(Cl)c(OC(C)C)c2)nc1CC(=O)NCc1cc(C)cc(C)n1 [Example 82, 2-[3-(4-Chloro-3-isopropyloxyphenyl)-1-ethyl-1H-1,2,4-triazol-5-yl]-N-[(4,6-dimethylpyridin-2-yl)methyl]acetamide] |  |
|  | 89.6 | CCn1nc(-c2ccc(Cl)c(F)c2)nc1CC(=O)NCc1ccnc(C(F)(F)F)c1 [Example 83, 2-[3-(4-Chloro-3-fluorophenyl)-1-ethyl-1H-1,2,4-triazol-5-yl]-N-{[2-(trifluoromethyl)pyridin-4-yl]methyl}acetamide] |  |
|  | 32.2 | CCn1nc(-c2ccc(Cl)c(F)c2)nc1CC(=O)NCc1ccnc(C(F)F)c1 [Example 84, 2-[3-(4-Chloro-3-fluorophenyl)-1-ethyl-1H-1,2,4-triazol-5-yl]-N-{[2-(difluoromethyl)pyridin-4-yl]methyl}acetamide] |  |
|  | 37.3 | CCn1nc(-c2ccc(Cl)c(F)c2)nc1CC(=O)NC1(c2cc(C)nc(C)c2)CC1 [Example 86, 2-[3-(4-Chloro-3-fluorophenyl)-1-ethyl-1H-1,2,4-triazol-5-yl]-N-[1-(2,6-dimethylpyridin-4-yl)cyclopropyl]acetamide] |  |
